# Measurements as given in US6107459A, “Technetium-99m labeled peptides for diagnostic imaging” (Diatide, Inc., priority 1995, dated 2000).
# Read-outs that look alike come from different tables or passages of the source. Where a SMILES comes first, the peptide text is derived from it. Where no end group is shown, it is not given here. The star is where a group is joined. X1 = CC(C)(S)CNCCN(CCCCC(=O)*)CC(C)(C)S
# Key:
# [1] = test system: sites of infection (E. coli, left calf muscle); assay: Scintigraphic imaging and biodistribution of Tc-99m labeled peptides in E. coli-infected rabbits; format: in vivo, New Zealand white rabbits; settings: for Infected Muscle (% ID/g): Tc-99m labeled peptide i.v. (≤150 μg, 2-10 mCi), 24 h after i.m. E. coli inoculation, tissue taken after final imaging, percent injected dose per gram tissue; for Blood (% ID/g) / Control Muscle (% ID/g): rabbit, in vivo, iv; for Ratio of Infected/Blood / Ratio of Infected/Control: ratio of % ID/g; for Ratio of Infected/Blood: infected muscle tissue versus blood; for Ratio of Infected/Control: infected versus non-infected muscle tissue
# Description: (§1) After 24 h, the animals were sedated by i.m. injection of ketamine and xylazine, and then injected i.v. with Tc-99m labeled peptide (≤150 μg, 2-10 mCi). The animals were positioned supine in the field of view of a gamma camera (LEAP collimator/photopeaked for Tc-99m) and imaged over the first hour post-injection, and then at approximately 1 h intervals over the next three hours post injection. Animals were allowed to recover between image acquisitions and re-anesthetized as needed.
# (§2) Upon completion of the final imaging, each animal was sacrificed by overdose of phenobarbital i.v. and dissected to obtain samples of blood and of infected and control muscle tissue. The tissue samples were weighed, and along with a standard amount of the injected dose, were counted using a gamma counter, and the percent injected dose (per gram of tissue) remaining in the tissues was determined. Ratios of percent of injected dose per gram of infected versus non-infected muscle tissue, and of infected muscle tissue versus blood, were calculated for each peptide. Scintiphotos of whole body and leg images of a rabbit injected with a Tc-99m labeled reagent of the invention, having the formula
# [2] = as above; format: in vivo, New Zealand white rabbits; settings: rabbit, in vivo, iv
# Description: as §1, §2
Compound,Infected Muscle (% ID/g) [1] [% ID/g],"Scintigraphic images (FIG. 1): localization of radioactivity, infected leg versus contralateral leg ([1]; gamma camera, whole body and leg images of a rabbit injected with the Tc-99m labeled reagent)",Blood (% ID/g) [1] [% ID/g],Control Muscle (% ID/g) [1] [% ID/g],Ratio of Infected/Blood [1],Ratio of Infected/Control [1],tissue uptake ([2]; Blood (% ID/g)) [%ID/g],tissue uptake ([2]; Control Muscle (% ID/g)) [%ID/g],"tissue uptake ([2]; Tc-99m labeled peptide i.v. (≤150 μg, 2-10 mCi), 24 h after i.m. E. coli inoculation, tissue taken after final imaging, percent injected dose per gram tissue, read-out: Infected Muscle (% ID/g)) [%ID/g]"
Ac.KKKKKCAcm GCAcm GGPLYKKIIKKLLES: Tc-99m labeled platelet factor 4-derived peptide reagent,0.0061,much greater extent of localization of radioactivity in the leg bearing the experimentallly-infected site compared to the non-infected contralateral leg,0.006,0.0019,0.93,5.60,,,
Ac.CGGGPLYKKIIKKLLES: Tc-99m labeled platelet factor 4-derived peptide reagent (Ac-CGGGPLYKKIIKKLLES; also: Tc-99m labeled),0.0235,,0.032,0.0050,0.74,4.70,,,
CC[C@H](C)[C@H](NC(=O)[C@H](CCCCN)NC(=O)[C@H](CCCCN)NC(=O)[C@H](Cc1ccc(O)cc1)NC(=O)[C@H](CC(C)C)NC(=O)[C@@H]1CCCN1C(=O)CNC(=O)CNC(=O)CCCCN(CCNCC(C)(C)S)CC(C)(C)S)C(=O)N[C@H](C(=O)N[C@@H](CCCCN)C(=O)N[C@@H](CCCCN)C(=O)N[C@@H](CC(C)C)C(=O)N[C@@H](CC(C)C)C(=O)N[C@@H](CCC(=O)O)C(=O)N[C@@H](CO)C(=O)O)[C@@H](C)CC [[BAT].GGPLYKKIIKKLLES] (X1-GGPLYKKIIKKLLES-OH; N-terminus and C-terminus assumed),,,,,0.50,7.00,0.004,0.0003,0.0021
"(Ac.CCAcm GCAcm PLYKKIIKKLLES)2 BSME: PF4-derived peptide dimer linked by bis-succinimidylmethylether, Cys(Acm)-Gly-Cys(Acm) Tc-99m binding moiety",0.0082,,0.010,0.0011,0.84,7.45,,,
